Measured values published in paper PMC5656322, “BAK1 is involved in AtRALF1-induced inhibition of root cell expansion” (PLoS Genetics, 2017).
Where no end group is shown, it is not given here.

Assays:
[1] = system: Arabidopsis seedlings, primary root; assay: Root growth inhibition assay, liquid medium, 24-well plates; type: in vivo, Arabidopsis thaliana; details: 10 μM, 2 days
Experimental: (A) and (B) Arabidopsis seedlings (2 days old) were treated with 10 μM AtRALF1 or water (H20) for 2 days. The values are the mean ± SD of at least 25 seedlings. Triple asterisks indicate P < 0.01 (Student’s t test); ns, not significant. (C) Four-day-old seedlings were transferred to media containing different concentrations of AtRALF1, and the primary root length was measured after 8 days of treatment. The data represent the mean value ± SD of 30 seedlings. […] Representative Arabidopsis seedlings after 8 days of treatment with AtRALF1 are shown below. Seedlings were arranged on plates after the treatment for imaging. Scale bars, 1 cm. (D) Two-day-old seedlings were treated with 10 μM AtRALF1 or water for 2 days, and root cell length was measured after 2 days of treatment. Cells from the root endodermis in the differentiation zone were measured. The values are the mean ± SD of approximately 150 cells. Triple asterisks indicate P < 0.01 (Student’s t test); ns, not significant.
Aliquots of 1 ml of medium containing seeds were distributed into 24-well plates. The peptides (10 μM) were added after 2 days, and the root length was measured 2 days after treatment. To maximize root growth, the seeds were germinated in vertical plates. […] The root length was measured 8 days after treatment unless stated otherwise. Control plants were grown under identical conditions in a peptide-free medium. Quantitative data were obtained as previously described. The experiments were repeated at least 3 times using independent biological replicates with similar results. The data from one representative experiment are shown. For cell length measurements, AtRALF1 peptide (10 μM) was added after 2 days of germination, and the cell length was measured after 2 days of treatment. The cell wall was stained with a 1 mg ml^-1 propidium iodide solution (Sigma) in the dark for 15 min and washed twice with water. Cells of the endodermis of the root differentiation zone were imaged and measured using confocal microscopy (Olympus FV1000). Approximately 30 plants from each genetic background and at least 5 cells per root were measured. The wavelengths for excitation and emission were 555 and 655 nm, respectively. Image processing was completed using the Olympus FluoView software.
Arabidopsis seedlings (2-days-old) were treated with 10 μM AtRALF1 or water (H20) for 2 days. The values are the mean ± SD of at least 25 seedlings. Triple asterisks indicate P < 0.01 (Student’s t test); ns, not significant. (PDF) Click here for additional data file.
Supplementary file pgen.1007053.s002.pdf: S2 Fig Loss-of-function bak1 mutants are sensitive to the inhibitory activity of AtRALF23/34 on root growth. Arabidopsis seedlings (2-day-old) were treated with 10 μM RALF1(9–49), RALF1(I6A), AtRALF1, AtRALF23 and AtRALF34 or water (H20) for 2 days. The values are the mean ± SD of at least 20 seedlings. […] (PDF) Click here for additional data file.

[2] = target: T1, BAK1-ECD (Arabidopsis thaliana, UniProt Q94F62); assay: Isothermal titration calorimetry (ITC); type: binding
T1 construct: Isothermal titration calorimetry (ITC) of the extracellular domain of BAK1 (BAK1-ECD) vs. AtRALF1; made in house; host or cells: Escherichia coli Rosetta DE3 or BL21
T1 sequence (Q94F62 26-225 limits assumed): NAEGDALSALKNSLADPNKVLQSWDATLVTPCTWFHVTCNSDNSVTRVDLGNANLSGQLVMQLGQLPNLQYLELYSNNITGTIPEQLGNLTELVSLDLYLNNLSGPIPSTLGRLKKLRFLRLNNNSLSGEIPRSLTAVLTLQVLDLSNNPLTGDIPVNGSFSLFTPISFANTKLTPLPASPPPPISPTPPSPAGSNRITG
Excerpt: Fig 6 AtRALF1 interacts physically with BAK1 protein. (A) The active AtRALF1 peptide interacts with the extracellular domain (ECD) of BAK1 (BAK1-ECD) in yeast. The AtRALF1 protein fused to the GAL4 DNA-binding domain (AtRALF1-pGBKT7) was used as bait to test its interaction with the extracellular domain of the proteins fused to the GAL4 activation domain (pGADT7): BAK1 (BAK1-ECD), BAK7 (BAK7-ECD), BRI1 (BRI1-ECD) and FLS2 (FLS2-ECD). (B) Blueprint showing the truncated proteins from the extracellular domain of BAK1 tested in the two-hybrid assay. The extracellular domain of BAK1 comprises leucine zippers (LZ), 5 leucine rich-regions (LRRs) and a proline-rich region (pro-rich). (C) AtRALF1-pGBKT7 was used as bait to test its interaction with truncated proteins fused to the GAL4 activation domain (pGADT7). The transformed yeast cells in (A) and (C) were selected on a synthetic complete medium lacking leucine, tryptophan and histidine to test interactions. (D, E) Co-immunoprecipitation (Co-IP) in vitro between the extracellular domain of BAK1 (HA-BAK1-ECD) and AtRALF1 recombinant purified proteins. HA-BAK1-ECD was detected with an anti-HA antibody. AtRALF1 was detected with an anti-RALF antibody. (F) Recombinant AtRALF1 is co-immunoprecipitated with the BAK1-GFP protein expressed in tobacco. BAK1-GFP was detected with an anti-GFP antibody. […] (G) Isothermal titration calorimetry (ITC) of the extracellular domain of BAK1 (BAK1-ECD) vs. AtRALF1 in ITC buffer (15 mM HEPES, pH 6.8). ITC experiments were simulated using 28 injections of BAK1-ED (0.7 mM, vol 10 μL) on AtRALF1 (0.03 mM vol cell = 1.4 mL) at 25°C. Kd = dissociation constant; N = number of binding sites.
ITC was performed using a VP ITC with a 1.4 ml standard cell and a 293 μl titration syringe. Proteins were dissolved in ITC buffer (15 mM HEPES (4-(2-hydroxyethyl)-1-piperazineethanesulfonic acid, pH 6.8) and the experiments were performed at 25°C. Molar protein concentration for BAK1-ECD and AtRALF1 were calculated using their molecular weight of 25,654.04 and 7,631 Da, respectively (determined by HPLC). The concentrations for the complex titrations were 0.7 mM of protein (BAK1-ECD) in the syringe and 0.03 mM of ligand (AtRALF1) in the cell at time intervals of 300 s (28 injections of volume 10 μl) to ensure that the titration peak returned to the baseline.
ITC data were corrected for the heat of dilution by subtracting the mixing enthalpies for titrant solution injections into protein free ITC buffer. Data were analyzed using the Origin software (version 7.0) as provided by the manufacturer. Independent experiments were repeated three times with similar results.

AtRALF1: root-specific RALF isoform in Arabidopsis; recombinant peptide hormone produced in E. coli (ATTKYISYQSLKRNSVPCSRRGASYYNCQNGAQANPYSRGCSKIARCRS; ends and bridges not checked; cysteine pairing not given here)
root growth inhibition ([1]; bak1-1 and bak1-3 mutants): exhibited no effect
sensitivity to root growth inhibition ([1]; bak1-4 complemented with pBAK1:BAK1): recovered the sensitivity to the inhibitory effect of AtRALF1 treatment
root growth inhibition ([1]; bri1-301, bsk3-2, sud1, bes1-D, bzr1-D, BRI OX, DWF4 OX lines): exhibited root growth inhibition by AtRALF1
sensitivity to root growth inhibition ([1]; loss-of-function bak1 mutants (bak1-4)): insensitive to the inhibitory activity of AtRALF1 on root growth
root growth inhibition ([1]; serk1, serk2, serk4 (bak7), serk5 (bak8) mutants): inhibited the root growth
number of binding sites ([2]; ITC experiment 1 of 3): 1.27
number of binding sites ([2]; ITC experiment 2 of 3): 1.5
N (number of binding sites) ([2]; representative experiment, Fig 6G, 15 mM HEPES, pH 6.8, 25°C): 1.27 sites

RALF1(9–49): inactive AtRALF1 peptide which has a deletion of the first 8 amino acids (QSLKRNSVPCSRRGASYYNCQNGAQANPYSRGCSKIARCRS; ends and bridges not checked; cysteine pairing not given here; UniProt Q9SRY3 80-120, looked up, fragment)
activity of negative control peptides on root growth [1]: inactive
interaction with BAK1-ECD by ITC ([2]; BAK1-ECD 0.7 mM into 0.03 mM peptide, 15 mM HEPES, pH 6.8, 25°C): no interaction between the inactive analog and BAK1-ECD
